From patent publication US20230055961A1, “PENTAFLUOROBENZENESULFONAMIDE DERIVATIVES AND USES THEREOF” (Dunad Therapeutics Ltd., priority 2019, published 2023)

Key:
BMX = molecular target: T1, BMX (Homo sapiens, UniProt P51813); assay: In vitro kinase inhibition studies (Table 9), BMX; assay type: biochemical
T1 sequence (P51813 1-675): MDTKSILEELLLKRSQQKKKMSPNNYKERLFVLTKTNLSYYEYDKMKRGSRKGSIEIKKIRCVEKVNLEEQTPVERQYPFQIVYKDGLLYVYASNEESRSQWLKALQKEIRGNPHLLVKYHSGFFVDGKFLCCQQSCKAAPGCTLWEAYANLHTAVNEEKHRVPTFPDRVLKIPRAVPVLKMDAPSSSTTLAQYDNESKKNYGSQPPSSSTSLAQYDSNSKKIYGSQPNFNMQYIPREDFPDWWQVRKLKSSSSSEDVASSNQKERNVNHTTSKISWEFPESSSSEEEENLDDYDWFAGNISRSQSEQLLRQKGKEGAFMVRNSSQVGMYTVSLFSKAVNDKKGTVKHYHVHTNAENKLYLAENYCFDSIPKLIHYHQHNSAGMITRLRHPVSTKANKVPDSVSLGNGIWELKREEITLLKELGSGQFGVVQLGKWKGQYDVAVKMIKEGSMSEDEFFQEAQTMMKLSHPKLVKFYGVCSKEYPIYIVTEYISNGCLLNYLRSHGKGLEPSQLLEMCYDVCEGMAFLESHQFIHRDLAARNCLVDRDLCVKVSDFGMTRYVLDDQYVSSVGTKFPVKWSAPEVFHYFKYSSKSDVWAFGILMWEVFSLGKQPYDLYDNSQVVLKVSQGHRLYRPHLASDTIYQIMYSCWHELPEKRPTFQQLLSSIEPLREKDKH

RL cells = assay: IC50 of Ibrutinib analogs against human cancer cells, RL cells (Table 14); assay type: cell-based; conditions: Homo sapiens, RL, Table 14; RL human non-Hodgkin's lymphoma B cell line; read-out: RL (IC50)
Description: 1×10^4 cells (NHF cells)/well are plated in 96-well assay plates in culture medium. […] After 24 hrs, test compounds and vehicle controls are added to appropriate wells so the final volume is 100p in each well. The cells are cultured for the desired test exposure period (72 hrs) at 37° C. and 5% CO2. The assay plates are removed from 37° C. incubator and 20 μl/well of CellTiter-Blue® Reagent is added. The plates are incubated using standard cell culture conditions for 1-4 hours and the plates are shaken for 10 seconds and record fluorescence at 560/590 nm. […] Therapeutic index=(IC50 human fibroblasts/IC50 […] )

MOLM-13 = assay: In vitro IC50 against human cancer cells (Table 11), MOLM-13; assay type: cell-based; conditions: read-out: Human cancer cell lines (IC50, μM) MOLM-13
MV-4-11 = assay: In vitro IC50 against human cancer cells (Table 11), MV-4-11; assay type: cell-based; conditions: MV4-11, read-out: Human cancer cell lines (IC50, μM) MV-4-11
FGFR4 = FGFR4 (Homo sapiens, UniProt P22455); assay: In vitro kinase inhibition studies (Table 9), FGFR4; assay type: biochemical
[1] = molecular target: T2, His-tagged BTK kinase domain (Homo sapiens, UniProt Q06187); assay: Mass spectral analysis of tryptic digest of His-tagged BTK kinase domain (MSMS of modified peptides); assay type: binding; conditions: 10 μM compound, 45 min; for C481 labelled by test compound (tryptic digest peptide): cysteine 481
T2 construct: pET-28b(+)-BTK (402-655) vector; made in house; host or cells: E. coli BL21 (DE3) RILP
Description: A protein kinase that is inhibited by compound and/or pharmaceutically acceptable salt of the present disclosure may be subjected to mass spectral analysis to assess the formation of permanent, irreversible covalent adducts. […] Such methods identify permanent, irreversible covalent protein adducts by observing a mass peak that corresponds to the mass of a control sample plus the mass of an irreversible adduct.
The starter cultures were incubated with shaking at 37° C. until cloudy and used to inoculate 1 L of Super broth containing same concentrations of kanamycin and chloramphenicol, 10 mM MgSO4, 5 mM CaCl2), and 0.1% (w/v) glucose. The cultures were incubated under similar conditions to an OD600 of 0.6-0.8. Before induction with 0.5 mM IPTG, the temperature was reduced to 16° C. The cells were harvested by centrifugation following approximately 18 h and frozen in a −80° C. freezer until use.
Cells were thawed in lysis buffer (50 mM HEPES [pH 7.6], 300 mM NaCl, 10 mM MgCl2, 10% [v/v] glycerol, 0.1 mg/mL lysozyme, 50 μg/mL DNase I, and protease inhibitors). Cells were sonicated (30 s on, 60 s off) for 3 repeating cycles. The cell lysates were cleared by centrifugation at 4° C. […] This eluant was cleaved with Ulp1 protease and loaded onto a S200 Superdex FPLC column (GE healthcare) pre-equilibrated with 20 mM HEPES pH 7.4, 150 mM NaCl, and 10% [v/v] glycerol. Pure fractions of His-tagged BTK kinase domain, as judged by SDS-PAGE, were pooled and concentrated using Amicon 10 kDa cutoff concentrators and after aliquoting stored at −80 C until use.
After the incubation time, the reactions were quenched by acetone precipitation and the pellet was re-dissolved in 8 M Urea. The protein was then reduced (5 mM DTT), alkylated (15 mM iodoacetamide) and digested (1 μg trypsin at 37° C. for 4 hours). The digest was then stopped by addition of trifluoroacetic acid, and peptides were removed from gel band by sonicating with increasing amounts of acetonitrile (0%, 30%, & 60%). Peptides were then purified using C18 ziptips, spotted on the MALDI target plate with a-cyano-4-hydroxycinnamic acid as the desorption matrix (10 mg/ml in 0.1% TFA: Acetonitrile 50:50), and analyzed in reflectron mode.

FGFR1 = FGFR1 (Homo sapiens, UniProt P11362); assay: In vitro kinase inhibition studies (Table 9), FGFR1; assay type: biochemical
[2] = 10 μM His-BTK KD, tryptic digest MSMS

T2 sequence (Q06187 402-655): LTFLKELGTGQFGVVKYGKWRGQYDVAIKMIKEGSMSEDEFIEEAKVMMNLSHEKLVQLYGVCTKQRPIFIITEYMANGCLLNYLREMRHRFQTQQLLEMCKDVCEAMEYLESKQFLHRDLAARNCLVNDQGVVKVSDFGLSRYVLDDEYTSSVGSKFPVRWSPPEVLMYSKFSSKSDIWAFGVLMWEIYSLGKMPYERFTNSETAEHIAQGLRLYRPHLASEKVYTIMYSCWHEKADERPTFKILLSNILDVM
Chain of FGFR1 (P11362 22-822, species assumed): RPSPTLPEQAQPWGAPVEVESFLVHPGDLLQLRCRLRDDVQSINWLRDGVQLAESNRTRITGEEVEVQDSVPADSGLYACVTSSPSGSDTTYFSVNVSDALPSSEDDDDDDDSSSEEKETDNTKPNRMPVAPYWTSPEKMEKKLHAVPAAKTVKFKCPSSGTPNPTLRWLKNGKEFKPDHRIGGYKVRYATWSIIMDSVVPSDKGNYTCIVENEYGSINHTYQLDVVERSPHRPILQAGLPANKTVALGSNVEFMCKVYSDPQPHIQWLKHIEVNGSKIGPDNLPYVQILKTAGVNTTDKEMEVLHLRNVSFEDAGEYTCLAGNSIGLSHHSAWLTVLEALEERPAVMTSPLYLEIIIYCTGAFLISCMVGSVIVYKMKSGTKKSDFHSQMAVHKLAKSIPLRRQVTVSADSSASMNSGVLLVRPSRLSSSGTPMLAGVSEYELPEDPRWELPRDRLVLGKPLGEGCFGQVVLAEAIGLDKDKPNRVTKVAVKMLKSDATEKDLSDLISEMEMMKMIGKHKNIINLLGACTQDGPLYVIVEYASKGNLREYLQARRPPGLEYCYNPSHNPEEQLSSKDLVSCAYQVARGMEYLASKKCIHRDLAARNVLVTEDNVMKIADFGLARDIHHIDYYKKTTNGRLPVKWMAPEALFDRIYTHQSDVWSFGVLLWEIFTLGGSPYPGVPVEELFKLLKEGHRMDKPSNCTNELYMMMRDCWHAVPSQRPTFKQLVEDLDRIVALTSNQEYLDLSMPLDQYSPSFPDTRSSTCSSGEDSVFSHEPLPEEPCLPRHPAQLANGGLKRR
Chain of FGFR4 (P22455 22-802, species assumed): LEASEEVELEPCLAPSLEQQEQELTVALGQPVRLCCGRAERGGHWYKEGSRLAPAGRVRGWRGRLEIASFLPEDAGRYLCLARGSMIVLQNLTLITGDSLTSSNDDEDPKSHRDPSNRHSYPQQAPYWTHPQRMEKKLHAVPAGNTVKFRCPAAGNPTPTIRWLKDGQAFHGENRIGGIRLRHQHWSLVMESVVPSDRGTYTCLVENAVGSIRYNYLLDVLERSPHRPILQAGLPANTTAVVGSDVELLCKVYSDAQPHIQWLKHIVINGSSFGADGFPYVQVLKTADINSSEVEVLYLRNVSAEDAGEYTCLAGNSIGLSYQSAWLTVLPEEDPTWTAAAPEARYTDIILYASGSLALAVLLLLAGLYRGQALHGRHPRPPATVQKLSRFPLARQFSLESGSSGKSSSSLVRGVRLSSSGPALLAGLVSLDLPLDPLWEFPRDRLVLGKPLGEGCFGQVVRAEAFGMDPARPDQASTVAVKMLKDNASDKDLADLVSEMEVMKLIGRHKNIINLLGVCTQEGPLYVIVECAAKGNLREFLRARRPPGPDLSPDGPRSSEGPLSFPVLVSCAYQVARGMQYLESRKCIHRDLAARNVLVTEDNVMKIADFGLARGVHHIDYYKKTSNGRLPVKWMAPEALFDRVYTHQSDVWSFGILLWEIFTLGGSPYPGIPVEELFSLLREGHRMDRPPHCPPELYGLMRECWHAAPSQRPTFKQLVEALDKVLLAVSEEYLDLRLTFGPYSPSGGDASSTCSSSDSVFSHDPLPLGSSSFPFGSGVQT

Nc1ncnc2c1c(-c1ccc(Oc3ccccc3)cc1)nn2[C@H]1CCCN(S(=O)(=O)c2c(F)c(F)c(F)c(F)c2F)C1 [Compound 5-2, (S)-1-(1-((perfluorophenyl)sulfonyl)piperidin-3-yl)-3-(4-phenoxyphenyl)-1H-pyrazolo[3,4-d]pyrimidin-4-amine]
IC50 (BMX): 0.1 to 10 nM

Nc1ncnc2c1c(-c1ccc(Oc3ccccc3)cc1)nn2S(=O)(=O)c1c(F)c(F)c(F)c(F)c1F [Compound 5-19, 1-((perfluorophenyl)sulfonyl)-3-(4-phenoxyphenyl)-1H-pyrazolo[3,4-d]pyrimidin-4-amine]
IC50 (BMX): 10 to 300 nM | IC50 (RL cells): 1640 nM

O=S(=O)(Nc1ccc(Oc2ccccc2)cc1)c1c(F)c(F)c(F)c(F)c1F [Compound 4-2, 2,3,4,5,6-pentafluoro-N-(4-phenoxyphenyl)benzenesulfonamide]
IC50 (MOLM-13): 10 to 100 µM | IC50 (MV-4-11): 10 to 100 µM

COCCOc1ccc(Nc2ncc(F)c(NCCNS(=O)(=O)c3c(F)c(F)c(F)c(F)c3F)n2)cc1 [Compound 5-13, 2,3,4,5,6-pentafluoro-N-(2-((5-fluoro-2-((4-(2-methoxyethoxy)phenyl)amino)pyrimidin-4-yl)amino)ethyl)benzenesulfonamide]
IC50 (FGFR4): > 2000 nM | amino acid of BTK modified by one equivalent of compound [1, 2]: Cys-481 | observed mass of modified tryptic peptide [1, 2]: 3059.4 Da | C481 labelled by test compound (tryptic digest peptide) ([1]; 10 μM BTK KD): ✓ | IC50 (FGFR1): > 2000 nM

N#Cc1ccc(NS(=O)(=O)c2c(F)c(F)c(F)c(F)c2F)cc1F [Compound 4-5, N-(4-cyano-3-fluorophenyl)-2,3,4,5,6-pentafluorobenzenesulfonamide]
IC50 (MV-4-11): 10 to 100 µM

Nc1ncnc2c1c(-c1ccc(Oc3ccccc3)cc1)nn2CCNS(=O)(=O)c1c(F)c(F)c(F)c(F)c1F [Compound 5-3, N-[2-[4-amino-3-(4-phenoxyphenyl)pyrazolo[3,4-d]pyrimidin-1-yl]ethyl]-2,3,4,5,6-pentafluoro-benzenesulfonamide]
IC50 (BMX): 0.1 to 10 nM | C481 labelled by test compound (tryptic digest peptide) ([1]; 10 μM BTK KD): ✓ | C527 labelled by test compound (tryptic digest peptide) ([1]; cysteine 527, 10 μM BTK KD): ✓

COCCOc1ccc(Nc2ncc(F)c(Nc3cccc(N(C)S(=O)(=O)c4c(F)c(F)c(F)c(F)c4F)c3)n2)cc1 [Compound 5-17, 2,3,4,5,6-pentafluoro-N-(3-((5-fluoro-2-((4-(2-methoxyethoxy)phenyl)amino)pyrimidin-4-yl)amino)phenyl)-N-methylbenzenesulfonamide]
IC50 (BMX): 0.1 to 10 nM

COCCOc1ccc(Nc2ncc(F)c(Nc3ccc(NS(=O)(=O)c4c(F)c(F)c(F)c(F)c4F)cc3)n2)cc1 [Compound 5-14, 2,3,4,5,6-pentafluoro-N-(4-((5-fluoro-2-((4-(2-methoxyethoxy)phenyl)amino)pyrimidin-4-yl)amino)phenyl)benzenesulfonamide]
IC50 (FGFR4): 10 to 300 nM | IC50 (FGFR1): 10 to 300 nM
